{"source": "paper PMC6426469", "about": "(Science Advances, 2019)", "origin": "cited, not measured here", "key": {"[1]": {"tested_on": "DG granule cells", "settings": "previous study"}, "[2]": {"tested_on": "APP/PS1 mice", "settings": "1-week treatment"}, "[3]": {"tested_on": "APP/PS1 mice", "settings": "prolonged treatment for 30 days"}}, "data": [{"smiles": "C[C@H](NCc1ccc(OCc2cccc(F)c2)cc1)C(N)=O", "note": "[safinamide]", "values": [{"measurement": "efficacy on spike probability", "setting": "[1]", "value": "showed prolonged efficacy"}]}, {"smiles": "C#CCN(C)[C@H](C)Cc1ccccc1", "note": "[Selegiline, selegiline]", "values": [{"measurement": "memory impairments, passive avoidance test", "setting": "[2]", "value": "effective in rescuing memory impairments"}, {"measurement": "spatial memory impairments, Morris water maze", "setting": "[3]", "value": "failed to significantly reverse spatial memory impairments"}]}]}
